Source: patent US9585897B2, “Anti-infective hydroxy-phenyl-benzoates and methods of use” (priority 2008, dated 2017)

Columns and labels:
[1] = test system: S. aureus; format: cell-based, Staphylococcus aureus; details: for agr expression: dose-dependent, SAL at 25 or 50 μg/ml, DICL, 2.5 or 5 μg/ml
[2] = test system: SH1000 (MSSA); experiment: Gene expression quantified by realtime PCR, strain SH1000; details: early log phase (2-4 hr); 25 μg/ml
[3] = test system: SA strains SH1000 (MSSA), USA300 (MRSA); experiment: Gene expression quantified by realtime PCR, statements covering both SA strains; format: cell-based, Staphylococcus aureus
[4] = test system: SA strains SH1000 (MSSA), USA300 (MRSA); experiment: Hemolysin phenotype compared to gene expression; details: in parallel to hla; 25 μg/ml
[5] = test system: SA strains SH1000 (MSSA), USA300 (MRSA); experiment: Antibiotic resistance phenotype (antibiotic MIC) in presence of salicylates; details: vs. both strains
[6] = test system: USA300 (MRSA); experiment: Gene expression quantified by realtime PCR, strain USA300; details: early log phase (2-4 hr); 25 μg/ml
[7] = test system: S. aureus α-toxin; format: cell-based, Staphylococcus aureus
[8] = test system: S. aureus strains MSSA (6850), MRSA (COL), RN6390, SH1000, sigB operon deleted strains; experiment: Rabbit IE model with a range of S. aureus strains; format: in vivo
[9] = test system: S. aureus; experiment: sarA-repressible genes, lipase and protein A; details: in the presence of SAL
[10] = test system: S. aureus FDA 486 and rsbU/V/W mutants; format: cell-based, Staphylococcus aureus
[11] = test system: S. aureus (9 individual strains); experiment: S. aureus-to-fibrinogen or -fibronectin binding, solid-phase assays; format: cell-based, Staphylococcus aureus; details: pre-exposed to SAL 30 and 50 μg/ml; composite of 9 strains; dose-dependent
Excerpt: Induction of endovascular infections is linked to the microbial binding to relevant vascular damage sites.
Fibrinogen and fibronectin play key roles as ligands for S. aureus binding to cellular docking sites (e.g., platelets and endothelial cells), as well as bridging molecules that facilitate these same interactions in which additional factors are operative (e.g., gC1qR-platelet or endothelial cell binding). Peerschke and Ghebrehiwet, Immunobiology.
Mean reduction (±SD) vs. control (100%). Data are composite results of laboratory S. aureus RN6390, COL, Newman, and ISP479C, and clinical MRSA 67-0, 6850, Duke 28, Duke 153, and Duke 237. […] Key: A P<0.005; B <P 0.001.

[12] = test system: S. aureus; experiment: Solid-phase plate assay, adherence to fibrin and platelet-fibrin matrices; format: cell-based, Staphylococcus aureus; details: organism pre-exposure to SAL in vitro
Description: A solid-phase plate assay was used to quantify the impact of SAL on the ability of S. aureus to adhere to fibrin and platelet-fibrin matrices. Platelet-rich (PRP) or platelet-free plasma (PFP) from control animals or those given a single-dose of aspirin iv (8 mg/kg) 5 hr prior to plasma isolation, were used to generate such matrices. […] Kupferwasser et al. Circulation. 1999 99:2791-7. These strains bound equally to control matrices and those constructed from aspirin-treated animals (data not shown).

[13] = test system: S. aureus: ISP479C, Newman and COL; experiment: In vitro MICs of aspirin and SAL; format: cell-based, Staphylococcus aureus; details: 10-50 ug/ml up to 8 mg/ml
[14] = test system: S. aureus: ISP479C, Newman and COL; details: physiologically relevant drug concentrations; cited from earlier work
[15] = test system: S. aureus; experiment: Protease activity in S. aureus supernatants; format: cell-based, Staphylococcus aureus; details: in the presence of SAL
[16] = test system: three distinct S. aureus strains; experiment: NSAID effect on phenotypic or genotypic characteristics of S. aureus in vitro; format: cell-based, Staphylococcus aureus
Excerpt: These findings also substantiate the concept that the anti-infective properties of aspirin likely occur by both platelet-dependent (aspirin) and platelet independent (SAL) mechanisms. Thus, the discovery of adjunctive use of SALs for MRSA infections are particularly relevant given: 1) long-term and extensive experience of aspirin for a variety of clinical indications; 2) its well-defined pharmacokinetics; and 3) its excellent adverse event and safety profiles.

[17] = test system: strain RN6390; experiment: Rabbit model of IE, aspirin alone 4 to 12 mg/kg/d for 4 d; format: in vivo
Description: To begin to assess the in vitro data sets for in vivo relevance, the rabbit model of IE as described by […] et al. Handbook of Animal Models of Infection. Academic Press, New York, N.Y., was utilized. Animals with pre-established IE caused by strain RN6390 were administered a wide range of iv aspirin dose regimens (4 to 12 mg/kg/d for 4 d therapy). This range affords human-equivalent sera levels in rabbits as described in Kupferwasser et al. Circulation. 1999 99:2791-7.

[18] = test system: S. aureus IE; experiment: Rabbit model of S. aureus IE, aspirin, vancomycin or both for 2 d; format: in vivo
Description: In the rabbit model of S. aureus IE, two intravenous (iv) aspirin dose regimens designed to encompass those used in a previous aspirin-alone efficacy study (4 or 8 mg/kg/d) were employed. Animals received aspirin alone, vancomycin alone at a low dose regimen (7.5 mg/kg bid iv), or the two agents combined. Treatment was only for 2 d, based on the rationale that as the in vivo effects of vancomycin are traditionally slow in onset, maximal disclosure of any synergistic effect of the two compounds may emerge at this early time point.

[19] = Plasma prostacyclin levels after aspirin dosing

For `O=C(O)Cc1ccccc1Nc1c(Cl)cccc1Cl` [DICL, diclofenac], the agr expression [1] was “reduced”.
In the case of `O=C(O)c1cc(-c2ccc(F)cc2F)ccc1O` [DIF, 5-(2,4-difluorophenyl)-2-hydroxy-benzoic acid], the “suppression of agr RNAIII, hla, and vraR” value [2] is reported as over 20 fold, the “regulatory and VF gene expression in MSSA and MRSA” value [3] is reported as “significantly modulate” and the “effectiveness relative to SAL in suppressing virulence factor regulation or expression in MRSA” value ([3]; in vitro, MRSA including USA300) is reported as “approximately 10 fold”. For the same compound, the “reduction of RNAIII (agr), hla, sspA compared with SAL” value ([3]; log phase) was “ten-fold higher reduction”, the Hemolysis phenotypes [4] was “suppressed” and the “increases in ciprofloxacin MIC” value [5] was “prevented increases”. For the same compound, the “expression of agr RNAIII, hla, mprF, and sspA” value [6] was “suppressed”.
With `O=C(O)c1ccccc1O` [SAL, salicylic acid] the Hla protein production [7] was “dose dependent reduction”, the “thrombolysis and hemolysis by supernates” value [7] was “reduced” and the α-toxin elaboration [7] was “reduced”. For the same compound, the “in vivo efficacy compared with aspirin” value ([8]; same in vivo efficacy study carried out with SAL) was “equivalent results to aspirin alone”, the “regulatory and VF gene expression in MSSA and MRSA” value [3] was “significantly modulate” and the “modulation of gene expression or hemolysis” value ([3]; 25 μg/ml) was “limited modulation”. For the same compound, the Lipase activity increase [9] was about 2.6 fold, the “protein A expression increase” value [9] was about 20% and the “sigB expression (as measured by increases in asp23 expression)” value [10] was “induces”. The “fibrinogen and fibronectin binding” value [11] was “significant reductions”, the “binding to fibrin and platelet-fibrin matrices” value [12] was “Significant reductions” and the “growth inhibition (in vitro MIC testing)” value [13] was “no substantial growth inhibition”. The “intrinsic bacteriostatic or bactericidal effects” value [14] was “no evident intrinsic bacteriostatic or bactericidal effects”, the “protease activity in supernatants” value [15] was “increased up to five-fold” and the hla expression [1] was “significantly reduced”. For the same compound, the “protein A gene expression (spa)” value [1] was “increased”, the “sarA (P1) expression” value [1] was “down-regulating” and the “sarC (P3) expression” value [1] was “up-regulating”. For the same compound, the agr expression [1] was “reduced”.
With `O=C(O)c1cc(O)ccc1O` [GTA, gentisic acid] the gene expression ([3]; 25 μg/ml) was “did not alter”.
For `COc1ccc2c(c1)c(CC(=O)O)c(C)n2C(=O)c1ccc(Cl)cc1` [indomethacin], the “changes in phenotypic or genotypic characteristics” value [16] was “neither aspirin (parent compound of SAL) nor indomethacin caused detectable changes”.
With `CC(=O)Oc1ccccc1C(=O)O` [aspirin, acetylsalicylic acid] the “beneficial effects of 8 mg/kg/d versus lower (4 mg/kg/d) or higher (12 mg/kg/d) dose regimens” value ([17]; 8 mg/kg/d) was “significantly exceeded”, the “beneficial effects at increased dose” value ([17]; aspirin 12 mg/kg/d) was “paradoxical loss” and the “vegetation weight, and vegetation and kidney bacterial densities” value ([17]; iv aspirin 4 to 12 mg/kg/d for 4 d) was “consistent and dose-dependent reduction”. For the same compound, the “mass of echocardiographic detectable cardiac valve vegetations” value ([17]; rabbit, in vivo) was “dramatic reductions”, the “effects of aspirin treatment across strains” value ([8]; RN6390 and rsbU-repaired variant SH1000) was “Equivalent salutary effects” and the impact of aspirin ([8]; strains deleted of their entire sigB operon) was “dampened”. For the same compound, the “modulation of gene expression or hemolysis” value ([3]; 25 μg/ml) was “limited modulation”, the “bacterial counts in vegetations and kidneys” value ([18]; aspirin 8 mg/kg/d iv) was “significantly reduces” and the “changes in phenotypic or genotypic characteristics” value [16] was “neither aspirin (parent compound of SAL) nor indomethacin caused detectable changes”. The “growth inhibition (in vitro MIC testing)” value [13] was “no substantial growth inhibition”, the prostacyclin generation ([19]; 12 mg/kg aspirin dosing) was “prolonged suppression” and the “prolonged suppression of prostacyclin generation” value ([19]; 4 or 8 mg/kg aspirin) was “neither at 4 or 8 mg/kg”.
With `CN[C@H](CC(C)C)C(=O)N[C@H]1C(=O)N[C@@H](CC(N)=O)C(=O)N[C@H]2C(=O)N[C@H]3C(=O)N[C@H](C(=O)N[C@H](C(=O)O)c4cc(O)cc(O)c4-c4cc3ccc4O)[C@H](O)c3ccc(c(Cl)c3)Oc3cc2cc(c3O[C@@H]2O[C@H](CO)[C@@H](O)[C@H](O)[C@H]2O[C@H]2C[C@](C)(N)[C@H](O)[C@H](C)O2)Oc2ccc(cc2Cl)[C@H]1O` [vancomycin] the “bacterial counts in vegetations and kidneys” value ([18]; vancomycin 7.5 mg/kg bid iv) was “significantly reduces”.
